Laboratory results from patent US10294234B2, “HIV inhibitor compounds” (priority 2017, dated 2019).
Where two headings read alike, the source gives them in different places.

System: HIV-1 (IIIB) in MT-4 cells
Assay: MT-4 HIV assay
Format: cell-based
Details: Human immunodeficiency virus 1, MT4, 120 h
Method in brief: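 MT-4 cells infected with HIV-1 IIIB (1:250 stock dilution) were incubated with 1:3 serially diluted compounds in RPMI with 10% FBS for 5 days at 37 °C. Cell Titer Glo luminescence was the readout. Plates included mock-infected wells, no-drug wells and 5 uM AZT controls.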

[1] = HIV-1 (IIIB), MT-4 cells, 5 days, Cell Titer Glo, read-out: EC50

Compound | EC50 [nM] | EC50 [1] [nM]
COC(=O)N[C@H](C(=O)N[C@@H](Cc1ccc(C#Cc2ccc(N3CC4CCC(C3)N4C3COC3)nc2)cc1)[C@@H](O)CN(Cc1ccc(-c2ccc(F)cn2)cc1)NC(=O)[C@@H](NC(=O)OC)C(C)(C)C(F)(F)F)C(C)(C)C(F)(F)F [Example 111, Methyl ((5S,8S,9S,14S)-16,16,16-trifluoro-11-(4-(5-fluoropyridin-2-yl)benzyl)-9-hydroxy-15,15-dimethyl-8-(4-((6-(8-(oxetan-3-yl)-3,8-diazabicyclo [3.2.1]octan-3-yl)pyridin-3-yl)ethynyl)benzyl)-3,6,13-trioxo-5-(1,1,1-trifluoro-2-methylpropan-2-yl)-2-oxa-4,7,11,12-tetraazahexadecan-14-yl)carbamate] | 7.22 | 
COC(=O)N[C@H](C(=O)N[C@@H](Cc1ccc(C#Cc2ccc(N3CCN(C4COC4)CC3)nc2)cc1)[C@@H](O)CN(Cc1ccc(-c2cnn(C(F)F)c2)cc1)NC(=O)[C@@H](NC(=O)OC)C(C)(C)C(F)(F)F)C(C)(C)C(F)(F)F [Example 113, Methyl ((5S,8S,9S,14S)-11-(4-(1-(difluoromethyl)-1H-pyrazol-4-yl)benzyl)-16,16,16-trifluoro-9-hydroxy-15,15-dimethyl-8-(4-((6-(4-(oxetan-3-yl)piperazin-1-yl)pyridin-3-yl)ethynyl)benzyl)-3,6,13-trioxo-5-(1,1,1-trifluoro-2-methylpropan-2-yl)-2-oxa-4,7,11,12-tetraazahexadecan-14-yl)carbamate] |  | 6.01
COC(=O)N[C@H](C(=O)NN(Cc1ccc(-c2cnn(C3CC3)c2)cc1)C[C@H](O)[C@H](Cc1ccc(C#Cc2ccc(N3CC4CCC(C3)N4C3COC3)nc2)cc1)NC(=O)[C@@H](NC(=O)OC)C(C)(C)C(F)(F)F)C(C)(C)C [Example 117, Methyl ((5S,8S,9S,14S)-11-(4-(1-cyclopropyl-1H-pyrazol-4-yl)benzyl)-9-hydroxy-15,15-dimethyl-8-(4-((6-(8-(oxetan-3-yl)-3,8-diazabicyclo [3.2.1]octan-3-yl)pyridin-3-yl)ethynyl)benzyl)-3,6,13-trioxo-5-(1,1,1-trifluoro-2-methylpropan-2-yl)-2-oxa-4,7,11,12-tetraazahexadecan-14-yl)carbamate] |  | 4.15
COC(=O)N[C@H](C(=O)N[C@@H](Cc1ccc(C#Cc2cnc(N3CC4CCC(C3)N4C3COC3)nc2)cc1)[C@@H](O)CN(Cc1ccc(-c2ccn(C(F)F)n2)cc1F)NC(=O)[C@@H](NC(=O)OC)C(C)(C)C(F)(F)F)C(C)(C)C(F)(F)F [Example 118, Methyl ((5S,8S,9S,14S)-11-(4-(1-(difluoromethyl)-1H-pyrazol-3-yl)-2-fluorobenzyl)-16,16,16-trifluoro-9-hydroxy-15,15-dimethyl-8-(4-((2-(8-(oxetan-3-yl)-3,8-diazabicyclo[3.2.1]octan-3-yl)pyrimidin-5-yl)ethynyl)benzyl)-3,6,13-trioxo-5-(1,1,1-trifluoro-2-methylpropan-2-yl)-2-oxa-4,7,11,12-tetraazahexadecan-14-yl)carbamate] |  | 10.6
COC(=O)N[C@H](C(=O)N[C@@H](Cc1ccc(C#Cc2ccc(N3C[C@@H](C)O[C@@H](C)C3)nc2)cc1)[C@@H](O)CN(Cc1c(F)cc(-c2cnn(C(F)F)c2)cc1F)NC(=O)[C@@H](NC(=O)OC)C(C)(C)C(F)(F)F)C(C)(C)C(F)(F)F [Example 132, Methyl ((5S,8S,9S,14S)-11-(4-(1-(difluoromethyl)-1H-pyrazol-4-yl)-2,6-difluorobenzyl)-8-(4-((6-((2S,6R)-2,6-dimethylmorpholino)pyridin-3-yl)ethynyl)benzyl)-16,16,16-trifluoro-9-hydroxy-15,15-dimethyl-3,6,13-trioxo-5-(1,1,1-trifluoro-2-methylpropan-2-yl)-2-oxa-4,7,11,12-tetraazahexadecan-14-yl)carbamate] |  | 18.2
